Results taken from ChEMBL document CHEMBL5291721, “A preclinical secondary pharmacology resource illuminates target-adverse drug reaction associations of marketed drugs” (Nat Commun, 2023).

Tests used:
[1] = biological target: Beta-2 adrenergic receptor (Homo sapiens, UniProt P07550); assay type: functional, cell-based
[2] = biological target: T1, Gastrin/cholecystokinin type B receptor (Homo sapiens, UniProt P32239)
T1 sequence (P32239 whole entry): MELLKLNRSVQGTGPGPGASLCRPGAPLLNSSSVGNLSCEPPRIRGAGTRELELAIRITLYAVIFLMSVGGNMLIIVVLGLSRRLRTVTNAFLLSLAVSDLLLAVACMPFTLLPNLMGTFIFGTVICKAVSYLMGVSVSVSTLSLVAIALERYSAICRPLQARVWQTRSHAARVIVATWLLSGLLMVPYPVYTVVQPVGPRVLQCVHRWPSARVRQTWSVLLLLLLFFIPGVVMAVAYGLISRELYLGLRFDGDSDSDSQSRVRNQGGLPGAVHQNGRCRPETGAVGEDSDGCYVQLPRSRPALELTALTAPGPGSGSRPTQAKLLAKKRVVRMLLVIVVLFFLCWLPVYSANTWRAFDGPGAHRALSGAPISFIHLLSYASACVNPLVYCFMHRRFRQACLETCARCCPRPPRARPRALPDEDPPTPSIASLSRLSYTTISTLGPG

Adenosine receptor A2a = Adenosine receptor A2a (Homo sapiens, UniProt P29274)
[3] = biological target: 5-hydroxytryptamine receptor 2B (Homo sapiens, UniProt P41595); assay type: functional, cell-based
[4] = biological target: Gamma-aminobutyric acid receptor subunit alpha-1 (Rattus norvegicus, UniProt P62813)
Bile salt export pump = Bile salt export pump (Homo sapiens, UniProt O95342); assay type: functional
Progesterone receptor [5] = biological target: T2, Progesterone receptor (Homo sapiens, UniProt P06401); assay type: functional
T2 sequence (P06401 whole entry): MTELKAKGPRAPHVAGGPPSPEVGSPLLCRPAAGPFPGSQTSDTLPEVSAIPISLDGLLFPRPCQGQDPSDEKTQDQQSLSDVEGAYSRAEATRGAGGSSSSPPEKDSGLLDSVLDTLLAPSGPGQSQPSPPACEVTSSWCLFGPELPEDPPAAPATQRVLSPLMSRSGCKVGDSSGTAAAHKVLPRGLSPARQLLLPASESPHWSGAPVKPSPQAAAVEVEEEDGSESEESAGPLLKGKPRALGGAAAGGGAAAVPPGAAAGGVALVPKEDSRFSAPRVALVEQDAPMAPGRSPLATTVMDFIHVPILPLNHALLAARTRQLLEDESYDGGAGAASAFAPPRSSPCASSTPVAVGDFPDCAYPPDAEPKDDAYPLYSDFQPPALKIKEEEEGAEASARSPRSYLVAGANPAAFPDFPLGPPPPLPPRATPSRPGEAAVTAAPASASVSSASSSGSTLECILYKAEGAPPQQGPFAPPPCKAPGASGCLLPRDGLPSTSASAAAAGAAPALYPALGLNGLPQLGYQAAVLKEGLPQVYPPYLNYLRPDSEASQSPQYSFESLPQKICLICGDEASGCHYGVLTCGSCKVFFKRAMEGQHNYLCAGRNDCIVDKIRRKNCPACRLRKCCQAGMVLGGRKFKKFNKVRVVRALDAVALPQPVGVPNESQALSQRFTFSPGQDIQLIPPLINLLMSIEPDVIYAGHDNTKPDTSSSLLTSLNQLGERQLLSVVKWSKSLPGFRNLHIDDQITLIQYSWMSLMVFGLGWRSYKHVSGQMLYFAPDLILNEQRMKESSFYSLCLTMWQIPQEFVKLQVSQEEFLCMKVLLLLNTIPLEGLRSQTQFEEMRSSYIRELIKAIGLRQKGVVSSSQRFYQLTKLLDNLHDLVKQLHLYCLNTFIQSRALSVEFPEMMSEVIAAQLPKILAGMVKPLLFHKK

[6] = biological target: T3, 5-hydroxytryptamine receptor 1A (Homo sapiens, UniProt P08908); assay type: functional, cell-based
T3 sequence (P08908 whole entry): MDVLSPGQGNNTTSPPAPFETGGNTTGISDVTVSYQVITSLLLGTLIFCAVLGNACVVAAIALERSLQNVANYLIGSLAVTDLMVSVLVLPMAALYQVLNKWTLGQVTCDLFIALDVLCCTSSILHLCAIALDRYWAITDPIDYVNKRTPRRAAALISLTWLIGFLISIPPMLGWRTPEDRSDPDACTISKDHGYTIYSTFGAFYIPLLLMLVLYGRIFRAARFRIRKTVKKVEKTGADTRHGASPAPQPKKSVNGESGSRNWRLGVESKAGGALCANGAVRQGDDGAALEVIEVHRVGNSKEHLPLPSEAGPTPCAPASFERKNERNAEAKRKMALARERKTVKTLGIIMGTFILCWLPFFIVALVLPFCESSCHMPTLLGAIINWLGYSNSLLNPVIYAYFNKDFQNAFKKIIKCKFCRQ

[7] = biological target: Beta-1 adrenergic receptor (Homo sapiens, UniProt P08588); assay type: functional
Progesterone receptor [8] = biological target: T2, Progesterone receptor
[9] = biological target: T4, Alpha-2A adrenergic receptor (Homo sapiens, UniProt P08913)
T4 sequence (P08913 whole entry): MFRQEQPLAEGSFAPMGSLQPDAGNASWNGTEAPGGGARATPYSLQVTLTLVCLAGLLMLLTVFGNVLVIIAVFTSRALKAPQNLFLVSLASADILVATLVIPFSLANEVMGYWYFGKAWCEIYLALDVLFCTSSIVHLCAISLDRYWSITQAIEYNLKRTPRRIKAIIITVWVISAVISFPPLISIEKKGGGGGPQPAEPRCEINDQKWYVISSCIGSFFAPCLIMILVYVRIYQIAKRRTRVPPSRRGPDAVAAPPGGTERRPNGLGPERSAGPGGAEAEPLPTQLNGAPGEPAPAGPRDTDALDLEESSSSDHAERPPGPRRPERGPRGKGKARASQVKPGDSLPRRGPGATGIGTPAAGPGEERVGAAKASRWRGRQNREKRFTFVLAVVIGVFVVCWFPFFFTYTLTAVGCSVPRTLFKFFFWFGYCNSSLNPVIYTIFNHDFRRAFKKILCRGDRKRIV

[10] = biological target: Sodium-dependent serotonin transporter (Homo sapiens, UniProt P31645)
Further: assay procedure not described here.

Adenosine receptor A2a, sequence (P29274 whole entry): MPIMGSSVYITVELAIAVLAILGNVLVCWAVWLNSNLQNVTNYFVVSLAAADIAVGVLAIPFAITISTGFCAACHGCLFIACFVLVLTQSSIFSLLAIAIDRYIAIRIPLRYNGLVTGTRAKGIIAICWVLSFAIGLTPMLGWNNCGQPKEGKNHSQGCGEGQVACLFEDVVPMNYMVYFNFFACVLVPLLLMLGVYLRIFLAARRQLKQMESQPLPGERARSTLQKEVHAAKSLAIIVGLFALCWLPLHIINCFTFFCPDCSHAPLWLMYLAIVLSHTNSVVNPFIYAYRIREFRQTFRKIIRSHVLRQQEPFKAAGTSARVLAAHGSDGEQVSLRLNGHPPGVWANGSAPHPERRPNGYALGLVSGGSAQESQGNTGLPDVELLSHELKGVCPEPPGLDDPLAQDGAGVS
Gamma-aminobutyric acid receptor subunit alpha-1, sequence (P62813 whole entry): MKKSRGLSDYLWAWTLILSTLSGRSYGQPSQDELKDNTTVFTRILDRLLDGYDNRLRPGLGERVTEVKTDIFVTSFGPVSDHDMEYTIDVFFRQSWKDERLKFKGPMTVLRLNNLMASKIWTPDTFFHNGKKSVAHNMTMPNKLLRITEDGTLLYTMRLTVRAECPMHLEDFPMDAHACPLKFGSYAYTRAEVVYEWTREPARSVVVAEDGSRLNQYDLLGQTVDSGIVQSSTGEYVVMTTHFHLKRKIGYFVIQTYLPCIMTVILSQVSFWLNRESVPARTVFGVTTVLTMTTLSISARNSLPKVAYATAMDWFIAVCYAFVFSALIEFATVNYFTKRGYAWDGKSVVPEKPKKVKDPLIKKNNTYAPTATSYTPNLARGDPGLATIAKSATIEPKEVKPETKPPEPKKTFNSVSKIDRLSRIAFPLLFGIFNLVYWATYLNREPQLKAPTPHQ
Bile salt export pump, sequence (O95342 whole entry): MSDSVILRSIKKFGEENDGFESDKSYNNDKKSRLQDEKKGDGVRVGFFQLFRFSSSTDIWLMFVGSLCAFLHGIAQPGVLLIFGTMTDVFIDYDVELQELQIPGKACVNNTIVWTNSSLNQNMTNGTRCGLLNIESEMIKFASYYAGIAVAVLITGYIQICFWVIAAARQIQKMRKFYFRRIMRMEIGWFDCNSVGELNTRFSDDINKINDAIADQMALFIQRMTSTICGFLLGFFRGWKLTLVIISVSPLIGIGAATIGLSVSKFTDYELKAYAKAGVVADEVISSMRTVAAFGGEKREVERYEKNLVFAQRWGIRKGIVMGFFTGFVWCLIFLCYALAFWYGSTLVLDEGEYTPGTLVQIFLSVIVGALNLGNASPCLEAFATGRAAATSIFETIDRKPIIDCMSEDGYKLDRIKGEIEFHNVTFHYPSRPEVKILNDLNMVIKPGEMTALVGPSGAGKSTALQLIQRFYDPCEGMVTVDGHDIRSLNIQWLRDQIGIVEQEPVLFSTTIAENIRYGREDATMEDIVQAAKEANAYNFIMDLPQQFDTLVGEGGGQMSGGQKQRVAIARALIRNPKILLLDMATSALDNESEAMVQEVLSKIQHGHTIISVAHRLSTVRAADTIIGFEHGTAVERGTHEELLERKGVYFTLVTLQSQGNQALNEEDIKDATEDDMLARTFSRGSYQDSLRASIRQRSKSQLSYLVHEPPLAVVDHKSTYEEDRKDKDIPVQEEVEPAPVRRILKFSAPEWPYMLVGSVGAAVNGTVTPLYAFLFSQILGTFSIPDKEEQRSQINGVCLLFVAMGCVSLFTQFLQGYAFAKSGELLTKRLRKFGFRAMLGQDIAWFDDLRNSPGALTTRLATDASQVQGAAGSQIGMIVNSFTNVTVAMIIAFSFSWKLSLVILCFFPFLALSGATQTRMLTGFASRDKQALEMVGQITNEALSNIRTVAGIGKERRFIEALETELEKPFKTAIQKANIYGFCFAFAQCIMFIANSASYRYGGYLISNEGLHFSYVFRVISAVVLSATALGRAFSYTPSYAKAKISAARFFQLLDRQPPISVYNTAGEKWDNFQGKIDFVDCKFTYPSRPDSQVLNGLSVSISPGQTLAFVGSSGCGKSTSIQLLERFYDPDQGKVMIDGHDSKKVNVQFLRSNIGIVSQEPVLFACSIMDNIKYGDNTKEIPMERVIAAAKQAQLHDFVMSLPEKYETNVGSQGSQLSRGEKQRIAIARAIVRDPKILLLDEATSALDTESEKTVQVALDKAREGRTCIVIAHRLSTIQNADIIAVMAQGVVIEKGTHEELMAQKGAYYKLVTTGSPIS
Beta-2 adrenergic receptor, sequence (P07550 whole entry): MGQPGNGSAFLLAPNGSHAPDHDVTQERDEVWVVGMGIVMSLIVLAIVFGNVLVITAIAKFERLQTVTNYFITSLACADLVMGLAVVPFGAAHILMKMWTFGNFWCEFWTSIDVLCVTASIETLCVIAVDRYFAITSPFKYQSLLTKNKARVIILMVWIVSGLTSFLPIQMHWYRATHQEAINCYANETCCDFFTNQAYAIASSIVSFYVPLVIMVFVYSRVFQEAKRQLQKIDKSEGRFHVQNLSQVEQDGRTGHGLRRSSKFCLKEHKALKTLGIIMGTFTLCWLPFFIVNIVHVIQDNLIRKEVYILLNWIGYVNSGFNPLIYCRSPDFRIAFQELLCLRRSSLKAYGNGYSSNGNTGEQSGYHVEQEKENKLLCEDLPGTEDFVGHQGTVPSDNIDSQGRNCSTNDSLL
5-hydroxytryptamine receptor 2B, sequence (P41595 whole entry): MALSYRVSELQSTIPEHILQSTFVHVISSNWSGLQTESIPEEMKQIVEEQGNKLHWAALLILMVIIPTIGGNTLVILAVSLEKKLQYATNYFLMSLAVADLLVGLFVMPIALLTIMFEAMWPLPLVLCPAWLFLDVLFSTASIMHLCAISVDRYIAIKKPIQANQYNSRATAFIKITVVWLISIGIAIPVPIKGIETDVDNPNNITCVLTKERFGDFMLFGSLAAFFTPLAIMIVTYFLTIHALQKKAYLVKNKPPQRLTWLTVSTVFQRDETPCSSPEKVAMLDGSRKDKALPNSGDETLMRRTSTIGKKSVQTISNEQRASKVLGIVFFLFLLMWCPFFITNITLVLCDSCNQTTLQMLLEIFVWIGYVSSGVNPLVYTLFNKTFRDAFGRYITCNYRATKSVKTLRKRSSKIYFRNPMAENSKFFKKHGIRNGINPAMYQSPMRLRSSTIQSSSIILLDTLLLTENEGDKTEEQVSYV
Beta-1 adrenergic receptor, sequence (P08588 whole entry): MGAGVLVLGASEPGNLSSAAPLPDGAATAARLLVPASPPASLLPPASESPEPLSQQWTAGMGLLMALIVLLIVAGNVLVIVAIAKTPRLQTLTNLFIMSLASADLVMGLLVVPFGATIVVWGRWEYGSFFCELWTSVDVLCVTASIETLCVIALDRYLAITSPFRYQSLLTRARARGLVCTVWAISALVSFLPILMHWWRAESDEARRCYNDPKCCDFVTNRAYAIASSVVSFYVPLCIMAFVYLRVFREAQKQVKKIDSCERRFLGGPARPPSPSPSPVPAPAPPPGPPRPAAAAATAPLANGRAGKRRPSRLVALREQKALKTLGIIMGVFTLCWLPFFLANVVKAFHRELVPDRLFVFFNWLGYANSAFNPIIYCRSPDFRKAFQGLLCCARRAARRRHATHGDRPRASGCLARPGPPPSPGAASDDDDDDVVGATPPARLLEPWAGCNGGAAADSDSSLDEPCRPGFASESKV
Sodium-dependent serotonin transporter, sequence (P31645 whole entry): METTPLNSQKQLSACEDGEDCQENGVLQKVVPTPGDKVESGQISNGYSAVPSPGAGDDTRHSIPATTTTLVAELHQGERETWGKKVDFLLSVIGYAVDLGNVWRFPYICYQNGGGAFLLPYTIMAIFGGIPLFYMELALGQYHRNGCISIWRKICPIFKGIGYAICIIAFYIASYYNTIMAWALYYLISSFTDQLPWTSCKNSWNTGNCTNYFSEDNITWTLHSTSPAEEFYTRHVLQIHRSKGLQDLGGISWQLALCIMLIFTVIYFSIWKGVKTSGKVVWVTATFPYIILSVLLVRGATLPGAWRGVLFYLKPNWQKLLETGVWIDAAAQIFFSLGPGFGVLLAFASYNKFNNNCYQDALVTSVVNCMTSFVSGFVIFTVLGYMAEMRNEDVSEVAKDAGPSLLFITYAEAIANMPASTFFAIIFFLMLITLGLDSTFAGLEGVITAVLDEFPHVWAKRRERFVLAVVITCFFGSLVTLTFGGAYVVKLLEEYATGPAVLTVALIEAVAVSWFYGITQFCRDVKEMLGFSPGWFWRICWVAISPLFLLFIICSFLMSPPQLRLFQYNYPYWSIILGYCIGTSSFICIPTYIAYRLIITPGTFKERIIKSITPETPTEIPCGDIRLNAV

Which results are given for CCc1oc2ccccc2c1C(=O)c1cc(Br)c(O)c(Br)c1 [BENZBROMARONE]?
AC50 [1]: > 30 µM; AC50 [2]: > 30 µM; AC50 (Adenosine receptor A2a): > 30 µM; AC50 [3]: > 30 µM; AC50 [4]: > 10 µM; AC50 (Bile salt export pump): 3 µM; AC50 (Progesterone receptor [5]): > 30 µM; AC50 [6]: > 30 µM; AC50 [7]: 29 µM

Which AC50 [1] does the source give for CC(C)N(CCCCOCC(=O)NS(C)(=O)=O)c1cnc(-c2ccccc2)c(-c2ccccc2)n1 [SELEXIPAG] here?
The AC50 was greater than 30 µM.

What about the AC50 [2] of the same molecule?
Its AC50 is greater than 10 µM.

And the AC50 (Adenosine receptor A2a)?
Its AC50 is greater than 30 µM.

What about the AC50 [3] of the same molecule?
Its AC50 is greater than 30 µM.

And the AC50 [4]?
The AC50 was greater than 30 µM.

And the AC50 (Bile salt export pump)?
The AC50 was 5.7 µM.

And the AC50 (Progesterone receptor [5])?
Its AC50 is greater than 30 µM.

And the AC50 [6]?
Its AC50 is greater than 30 µM.

What about the AC50 [7] of the same molecule?
Its AC50 is greater than 30 µM.

For CC(C)C[C@H](CN)CC(=O)O [PREGABALIN], which AC50 [1] is on record?
The AC50 was greater than 30 µM.

What about the AC50 [2] of the same molecule?
The AC50 was greater than 30 µM.

What about the AC50 (Adenosine receptor A2a) of the same molecule?
The AC50 was greater than 30 µM.

What about the AC50 [3] of the same molecule?
Its AC50 is 28 µM.

What about the AC50 [4] of the same molecule?
The AC50 was greater than 30 µM.

What about the AC50 (Bile salt export pump) of the same molecule?
Its AC50 is greater than 300 µM.

And the AC50 (Progesterone receptor [5])?
The AC50 was greater than 30 µM.

What about the AC50 [6] of the same molecule?
The AC50 was greater than 30 µM.

And the AC50 [7]?
Its AC50 is greater than 30 µM.

CNC(=O)c1cc(Oc2ccc(NC(=O)Nc3ccc(Cl)c(C(F)(F)F)c3)c(F)c2)ccn1 [REGORAFENIB] was tested. Which AC50 [1] did it give?
The AC50 was greater than 30 µM.

What about the AC50 (Adenosine receptor A2a) of the same molecule?
Its AC50 is greater than 30 µM.

And the AC50 (Progesterone receptor [8])?
Its AC50 is greater than 3 µM.

What about the AC50 [9] of the same molecule?
The AC50 was greater than 10 µM.

What about the AC50 (Bile salt export pump) of the same molecule?
Its AC50 is 3 µM.

What about the AC50 (Progesterone receptor [5]) of the same molecule?
The AC50 was greater than 30 µM.

What about the AC50 [7] of the same molecule?
The AC50 was greater than 30 µM.

What about the AC50 [10] of the same molecule?
Its AC50 is greater than 30 µM.

Nc1nc(O)c2ncn(COC(CO)CO)c2n1 [GANCICLOVIR] was tested. Which AC50 [1] did it give?
The AC50 was greater than 30 µM.

And the AC50 [2]?
Its AC50 is greater than 30 µM.

And the AC50 (Adenosine receptor A2a)?
Its AC50 is greater than 30 µM.

And the AC50 [3]?
The AC50 was greater than 30 µM.

What about the AC50 [4] of the same molecule?
The AC50 was greater than 30 µM.

And the AC50 (Bile salt export pump)?
The AC50 was greater than 300 µM.

And the AC50 (Progesterone receptor [5])?
The AC50 was greater than 30 µM.

And the AC50 [6]?
Its AC50 is greater than 30 µM.

What about the AC50 [7] of the same molecule?
Its AC50 is greater than 30 µM.

How did the AC50 [1] turn out when Cc1cc(CC(=O)O)n(C)c1C(=O)c1ccc(Cl)cc1 [ZOMEPIRAC] was run?
The AC50 was greater than 30 µM.

And the AC50 [2]?
Its AC50 is greater than 30 µM.

And the AC50 (Adenosine receptor A2a)?
The AC50 was greater than 30 µM.

And the AC50 [3]?
Its AC50 is greater than 30 µM.

What about the AC50 [4] of the same molecule?
Its AC50 is greater than 30 µM.

What about the AC50 (Bile salt export pump) of the same molecule?
The AC50 was 72 µM.

What about the AC50 (Progesterone receptor [5]) of the same molecule?
Its AC50 is greater than 30 µM.

What about the AC50 [6] of the same molecule?
The AC50 was greater than 30 µM.

And the AC50 [7]?
The AC50 was greater than 30 µM.

With CCC(=O)O[C@@H](O[P@](=O)(CCCCc1ccccc1)CC(=O)N1C[C@H](C2CCCCC2)C[C@H]1C(=O)O)C(C)C [FOSINOPRIL] as the molecule, how does the AC50 [1] read?
Its AC50 is greater than 30 µM.

And the AC50 (Progesterone receptor [8])?
The AC50 was greater than 30 µM.

And the AC50 [9]?
The AC50 was greater than 30 µM.

What about the AC50 [3] of the same molecule?
The AC50 was greater than 30 µM.

And the AC50 [4]?
Its AC50 is greater than 30 µM.

And the AC50 (Bile salt export pump)?
Its AC50 is 11 µM.

What about the AC50 [6] of the same molecule?
The AC50 was greater than 30 µM.

What about the AC50 [10] of the same molecule?
Its AC50 is greater than 30 µM.

For CCCN(CCC)CCc1cccc2c1CC(=O)N2 [ROPINIROLE], which AC50 [1] is on record?
The AC50 was greater than 30 µM.

And the AC50 [2]?
The AC50 was greater than 30 µM.

What about the AC50 (Adenosine receptor A2a) of the same molecule?
Its AC50 is greater than 30 µM.

And the AC50 [3]?
The AC50 was 2.76 µM.

And the AC50 [4]?
Its AC50 is greater than 10 µM.

What about the AC50 (Bile salt export pump) of the same molecule?
Its AC50 is greater than 300 µM.

What about the AC50 (Progesterone receptor [5]) of the same molecule?
The AC50 was greater than 30 µM.

What about the AC50 [6] of the same molecule?
The AC50 was greater than 30 µM.

And the AC50 [7]?
Its AC50 is greater than 30 µM.

What does the source list for O=C1NC(=O)C(c2ccccc2)(c2ccccc2)N1 [PHENYTOIN]?
AC50 [1]: > 30 µM; AC50 [2]: > 30 µM; AC50 (Adenosine receptor A2a): > 30 µM; AC50 [3]: > 30 µM; AC50 [4]: > 10 µM; AC50 (Bile salt export pump): > 300 µM; AC50 (Progesterone receptor [5]): > 30 µM; AC50 [6]: > 30 µM; AC50 [7]: > 30 µM

For CC(/C=C1\SC(=S)N(CC(=O)O)C1=O)=C\c1ccccc1, which AC50 [1] is on record?
The AC50 was greater than 30 µM.

What about the AC50 [2] of the same molecule?
Its AC50 is greater than 30 µM.

What about the AC50 (Adenosine receptor A2a) of the same molecule?
The AC50 was 26 µM.

What about the AC50 [3] of the same molecule?
The AC50 was greater than 30 µM.

What about the AC50 [4] of the same molecule?
Its AC50 is greater than 30 µM.

What about the AC50 (Bile salt export pump) of the same molecule?
The AC50 was 1.6 µM.

What about the AC50 (Progesterone receptor [5]) of the same molecule?
Its AC50 is greater than 30 µM.

And the AC50 [6]?
The AC50 was greater than 30 µM.

What about the AC50 [7] of the same molecule?
The AC50 was 26 µM.

Which results are given for C#Cc1cccc(Nc2ncnc3cc(OCCOC)c(OCCOC)cc23)c1 [ERLOTINIB]?
AC50 [1]: > 30 µM; AC50 (Adenosine receptor A2a): 18 µM; AC50 (Progesterone receptor [8]): > 30 µM; AC50 [9]: > 30 µM; AC50 [3]: > 30 µM; AC50 (Bile salt export pump): 6.1 µM; AC50 (Progesterone receptor [5]): > 30 µM; AC50 [6]: > 30 µM; AC50 [7]: > 30 µM
